Experimental data as given in US20200317639A1, “POLYMORPHS OF N-[(2,6-DIFLUORO-3-METHOXYPHENYL)METHYL]-3-(METHOXYMETHYL)-1-({4-[(2-OXOPYRIDIN-1YL)METHYL]PHENYL}METHYL)PYRAZOLE-4-CARBOXAMIDE” (KALVISTA PHARMACEUTICALS LIMITED, priority 2016, published 2020).
Blank lines part the entries; values can stand above or below the molecule they belong to.

What was measured:
Human plasma kallikrein = target: T1, Human plasma kallikrein (Homo sapiens, UniProt P03952); test: Determination of the IC50 for plasma kallikrein; format: biochemical; conditions: 25° C., substrate H-DPro-Phe-Arg-AFC; read-out: IC50 (human PKaI)
T1 construct: purchased Protogen
T1 sequence (P03952 391-638 limits assumed): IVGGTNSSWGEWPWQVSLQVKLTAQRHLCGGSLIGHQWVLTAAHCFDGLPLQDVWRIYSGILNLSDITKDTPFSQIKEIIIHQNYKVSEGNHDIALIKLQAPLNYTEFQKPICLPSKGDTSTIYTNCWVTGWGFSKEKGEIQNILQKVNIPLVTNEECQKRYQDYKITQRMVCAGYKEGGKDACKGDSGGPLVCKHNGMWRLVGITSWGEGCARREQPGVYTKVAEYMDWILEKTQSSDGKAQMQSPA
T1 sequence (P03952 20-390 partner limits assumed): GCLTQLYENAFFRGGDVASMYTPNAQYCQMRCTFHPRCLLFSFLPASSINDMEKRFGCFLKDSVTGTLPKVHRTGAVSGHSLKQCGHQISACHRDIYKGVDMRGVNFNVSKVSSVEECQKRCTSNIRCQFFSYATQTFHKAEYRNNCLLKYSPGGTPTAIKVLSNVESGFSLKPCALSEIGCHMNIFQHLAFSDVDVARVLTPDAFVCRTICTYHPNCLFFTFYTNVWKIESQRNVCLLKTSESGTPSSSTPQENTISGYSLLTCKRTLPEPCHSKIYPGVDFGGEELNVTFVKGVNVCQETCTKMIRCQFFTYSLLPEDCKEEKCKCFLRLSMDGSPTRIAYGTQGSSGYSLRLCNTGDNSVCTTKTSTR
Description: Determination of the IC50 for Plasma Kallikrein
(§1) Plasma kallikrein inhibitory activity in vitro was determined using standard published methods (see e.g. Johansen et al., Int. J. Tiss. Reac. 1986, 8, 185; Shori et al., Biochem. Pharmacol., 1992, 43, 1209; Stürzebecher et al., Biol. Chem. Hoppe-Seyler, 1992, 373, 1025). Human plasma kallikrein (Protogen) was incubated at 25° C. with the fluorogenic substrate H-DPro-Phe-Arg-AFC and various concentrations of the test compound. Residual enzyme activity (initial rate of reaction) was determined by measuring the change in […] at 410 nm and the IC50 value for the test compound was determined.

Human KLK1 = target: T2, Human KLK1 (Homo sapiens, UniProt P06870); test: Determination of the IC50 for KLK1; format: biochemical; conditions: 25° C., substrate H-DVaI-Leu-Arg-AFC
T2 construct: purchased Callbiochem
T2 sequence (P06870 25-262): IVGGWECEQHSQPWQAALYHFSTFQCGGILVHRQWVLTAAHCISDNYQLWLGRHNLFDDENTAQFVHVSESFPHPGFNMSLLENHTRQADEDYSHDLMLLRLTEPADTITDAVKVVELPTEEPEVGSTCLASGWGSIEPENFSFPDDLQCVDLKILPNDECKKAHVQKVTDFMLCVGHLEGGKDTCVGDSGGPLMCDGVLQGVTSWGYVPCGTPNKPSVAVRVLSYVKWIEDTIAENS
Description: Determination of the IC50 for KLK1
as §1, with “KLK1” for “Plasma kallikrein”, “KLK1 (Callbiochem)” for “plasma kallikrein (Protogen)”, “H-DVaI-Leu-Arg-AFC” for “H-DPro-Phe-Arg-AFC”

Human FXIa = target: T3, Human FXIa (Homo sapiens, UniProt P03951); test: Determination of the % inhibition for FXIa; format: biochemical; conditions: 40 μM test compound, 25° C.
T3 construct: purchased Enzyme Research Laboratories
T3 sequence (P03951 388-625 limits assumed): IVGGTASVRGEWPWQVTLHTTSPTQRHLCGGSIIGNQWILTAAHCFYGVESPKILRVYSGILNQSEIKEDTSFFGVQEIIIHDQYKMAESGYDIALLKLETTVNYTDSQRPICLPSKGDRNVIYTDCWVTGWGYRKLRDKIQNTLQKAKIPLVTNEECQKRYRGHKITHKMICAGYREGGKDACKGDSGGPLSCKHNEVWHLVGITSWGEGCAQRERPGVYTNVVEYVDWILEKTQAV
T3 sequence (P03951 19-387 partner limits assumed): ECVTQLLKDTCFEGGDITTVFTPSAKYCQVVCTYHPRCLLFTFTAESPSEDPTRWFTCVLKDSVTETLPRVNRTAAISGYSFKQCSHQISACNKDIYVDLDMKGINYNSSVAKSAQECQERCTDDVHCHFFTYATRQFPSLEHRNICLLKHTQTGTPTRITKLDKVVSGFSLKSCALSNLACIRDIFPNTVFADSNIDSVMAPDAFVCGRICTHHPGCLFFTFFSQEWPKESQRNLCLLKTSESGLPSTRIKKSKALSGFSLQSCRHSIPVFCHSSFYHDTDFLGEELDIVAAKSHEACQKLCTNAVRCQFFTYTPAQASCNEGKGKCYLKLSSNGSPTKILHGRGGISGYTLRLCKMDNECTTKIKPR
Description: Determination of the % Inhibition for FXIa
as §1, with “FXIa” for “Plasma kallikrein”, “FXIa (Enzyme Research Laboratories)” for “plasma kallikrein (Protogen)”, “Z-Gly-Pro-Arg-AFC” for “H-DPro-Phe-Arg-AFC”, “40 μM” for “various concentrations”, “nm.” for “nm and the IC50 value for the test compound was determined.”

[1] = Pharmacokinetic study, single oral dose in rats; format: in vivo; conditions: male, Sprague-Dawley; rat, po 11.3 mg/kg, vehicle 10% DMSO/10% cremophor/80% SWFI, plasma
Description: A pharmacokinetic study of N-[(2,6-difluoro-3-methoxyphenyl)methyl]-3-(methoxymethyl)-1-({4-[(2-oxopyridin-1-yl)methyl]phenyl}methyl)pyrazole-4-carboxamide was performed to assess the pharmacokinetics following a single oral dose in male Sprague-Dawley rats. Two rats were given a single po dose of 5 mL/kg of a nominal 2 mg/mL (10 mg/kg) composition of test compound in vehicle. Following dosing, blood samples were collected over a period of 24 hours. Sample times were 5, 15 and 30 minutes then 1, 2, 4, 6, 8 and 12 hours. Following collection, blood samples were centrifuged and the plasma fraction analysed for concentration of test compound by LCMS.

[2] = test system: LPS-induced disseminated intravascular coagulation; conditions: cited from earlier work
blood = conditions: contacting blood with the substance; cited from earlier work
[3] = test system: intrinsic pathway of coagulation; conditions: in vitro; cited from earlier work
[4] = in vivo; cited from earlier work

- IC50 (Human plasma kallikrein): 4.5 nM
- IC50 (Human KLK1): > 10000 nM
- inhibition at 40 µM (Human FXIa): 4%
- Cmax [1]: 2890 ng/mL
- Tmax [1]: 1 h
Molecule: COCc1nn(Cc2ccc(Cn3ccccc3=O)cc2)cc1C(=O)NCc1c(F)ccc(OC)c1F [N-[(2,6-difluoro-3-methoxyphenyl)methyl]-3-(methoxymethyl)-1-({4-[(2-oxopyridin-1-yl)methyl]phenyl}methyl)pyrazole-4-carboxamide]

Molecule: Cl.NCC1CCC(C(=O)N[C@@H](Cc2ccccc2)C(=O)Nc2ccc(CC(=O)O)cc2)CC1 (stereo partly drawn) [PKSI-527]
- Decrease in platelet count and fibrinogen level and increase in FDP level [2]: significantly suppressed

Molecule: Ecallantide
- Activated clotting time (ACT) (blood): increase in activated clotting time
- Contact activated induced coagulation [3]: delay contact activated induced coagulation
- Anaphylactic reactions [4]: risks of anaphylactic reactions
